This is an account of results in US6410558B1, “Fungicides for the control of take-all disease of plants” (Monsanto Technology LLC, priority 1991, dated 2002).

The subject of this test is Gaeumannomyces graminis var. tritici (Ggt). The test is described as follows: In vitro Assay: mycelial growth of Ggt on minimal media agar plates containing test compound. Conditions: dark, 19-20° C., 4 to 5 days, diameter of mycelial growth; for inhibition at 0.1 ppm / inhibition at 1 ppm / inhibition at 10 ppm: Gaeumannomyces graminis; for inhibition at 0.1 ppm: read-out: In vitro (ppm) 0.1, Percent Inhibition; for inhibition at 1 ppm: read-out: In vitro (ppm) 1, Percent Inhibition; for inhibition at 10 ppm: read-out: In vitro (ppm) 10, Percent Inhibition. The test is classed as cell-based. A digest of the protocol:
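Ggt mycelial diameter read after 4 to 5 days in darkness at 19-20° C, from three 4-mm plugs placed on Czapek Dox minimal agar containing test compound delivered in acetone. Inhibition expressed as percent versus untreated plates, plug size (4 mm) subtracted from both.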

Regarding `C[Si](C)(C)c1cccc(Cl)c1C(=O)Nc1ccccc1C1CCCC1` [Example 158, 2-Chloro-N-(2-cyclopentylphenyl)-6-(trimethylsilyl)benzamide], the inhibition at 0.1 ppm (0.1 ppm in minimal media agar) is 2%. Besides, the inhibition at 1 ppm (1 ppm in minimal media agar) is 33%. For the same compound, where the note is “10 ppm in minimal media agar”, the inhibition at 10 ppm came to 44%.

As to `CC(NC(=O)c1c(Cl)cccc1[Si](C)(C)C)c1ccccc1` (stereo not drawn) [Example 161, 2-Chloro-N-(1-phenylethyl)-6-(trimethylsilyl)benzamide], the inhibition at 0.1 ppm (0.1 ppm in minimal media agar) was found to be 22%. For the same compound, where the note is “1 ppm in minimal media agar”, the inhibition at 1 ppm was 17%. Besides, where the note is “10 ppm in minimal media agar”, the inhibition at 10 ppm was determined as 61%.

In the case of `CC(C)CNC(=O)c1c(Cl)cccc1[Si](C)(C)C` [Example 162, 2-Chloro-N-(2-methylpropyl)-6-(trimethylsilyl)benzamide], the inhibition at 0.1 ppm (0.1 ppm in minimal media agar) was found to be 3%. The inhibition at 1 ppm (1 ppm in minimal media agar) was less than 0%. The inhibition at 10 ppm (10 ppm in minimal media agar) was determined as 57%.

With `C[Si](C)(C)c1cccc(Cl)c1C(=O)NC1CCC1` [Example 163, 2-Chloro-N-cyclobutyl-6-(trimethylsilyl)benzamide], the inhibition at 0.1 ppm (0.1 ppm in minimal media agar) was 24%. Moreover, the inhibition at 1 ppm (1 ppm in minimal media agar) came out at 85%. For the same compound, where the note is “10 ppm in minimal media agar”, the inhibition at 10 ppm was found to be 100%.

Consider `CC(C)N(C)C(=O)c1c(Cl)cccc1[Si](C)(C)C` [Example 164, 2-Chloro-N-methyl-N-(1-methylethyl)-6-(trimethylsilyl)benzamide], for which the inhibition at 0.1 ppm (0.1 ppm in minimal media agar) was determined as 3%. In addition, under “1 ppm in minimal media agar”, the inhibition at 1 ppm turned out to be 3%. In addition, the inhibition at 10 ppm (10 ppm in minimal media agar) worked out at 70%.

Regarding `CC(C)N(O)C(=O)c1c(Cl)cccc1[Si](C)(C)C.[Fe+3].[OH-].[OH-].[OH-]` [Example 168, 2-Chloro-N-hydroxy-N-(1-methylethyl)-6-(trimethylsilyl)benzamide, compd. with iron hydroxide (1:1)], under “0.1 ppm in minimal media agar”, the “In vitro (ppm) 0.1, Percent Inhibition” value stood at 57%. The “In vitro (ppm) 1, Percent Inhibition” value (1 ppm in minimal media agar) was 96%. In addition, the “In vitro (ppm) 10, Percent Inhibition” value (10 ppm in minimal media agar) is on record as 100%.

For `CCN=C(SCC)c1c(Cl)cccc1[Si](C)(C)C` [Example 169, 2-Chloro-N-ethyl-6-(trimethylsilyl)benzenecarboximidothioic acid, ethyl ester], where the note is “0.1 ppm in minimal media agar”, the inhibition at 0.1 ppm is less than 0%. In addition, the inhibition at 1 ppm (1 ppm in minimal media agar) is 31%. In addition, where the note is “10 ppm in minimal media agar”, the inhibition at 10 ppm was determined as 100%.

On to `C[Si](C)(C)c1cccc(Cl)c1C(=O)NC(c1ccccc1)n1nnc2ccccc21` (stereo not drawn) [Example 170, N-(1H-Benzotriazol-1-ylphenylmethyl)-2-chloro-6-(trimethylsilyl)benzamide], for which, for the setting “0.1 ppm in minimal media agar”, the inhibition at 0.1 ppm turned out to be 12%. Under “1 ppm in minimal media agar”, the inhibition at 1 ppm is 9%. For the same compound, the inhibition at 10 ppm (10 ppm in minimal media agar) was found to be 63%.

Consider `CC(C)NC(=O)NC(=O)c1c(Cl)cccc1[Si](C)(C)C` [Example 173, 2-Chloro-N-(isopropylaminocarbonyl)-6-(trimethylsilyl)benzamide], for which the inhibition at 0.1 ppm (0.1 ppm in minimal media agar) came out at 4%. The inhibition at 1 ppm (1 ppm in minimal media agar) is 12%. Moreover, the inhibition at 10 ppm (10 ppm in minimal media agar) came out at 92%.

As for `C[Si](C)(C)c1cccc(Cl)c1NC(=O)C(Cl)(Cl)Cl` [Example 175, 2,2,2-Trichloro-N-[2-chloro-6-(trimethylsilyl)phenyl]acetamide], for the setting “0.1 ppm in minimal media agar”, the inhibition at 0.1 ppm is 35%. Also, the inhibition at 1 ppm (1 ppm in minimal media agar) came out at 48%. Besides, the inhibition at 10 ppm (10 ppm in minimal media agar) worked out at 60%.

In the case of `CCNC(=O)c1c(Br)cccc1[Si](C)(C)C` [Example 176, 2-Bromo-N-ethyl-6-(trimethylsilyl)benzamide], where the note is “0.1 ppm in minimal media agar”, the inhibition at 0.1 ppm was 83%. For the same compound, where the note is “1 ppm in minimal media agar”, the inhibition at 1 ppm turned out to be 97%. Besides, the inhibition at 10 ppm (10 ppm in minimal media agar) was 97%.

Regarding `CCNC(=O)c1c([Si](C)(C)C)csc1Cl` [Example 177, 2-Chloro-N-ethyl-4-(trimethylsilyl)-3-thiophenecarboxamide], the inhibition at 0.1 ppm (0.1 ppm in minimal media agar) turned out to be 11%. Besides, the inhibition at 1 ppm (1 ppm in minimal media agar) is 19%. In addition, under “10 ppm in minimal media agar”, the inhibition at 10 ppm was 100%.

Turning to `CCNC(=O)n1cccc1[Si](C)(C)C` [Example 178, N-Ethyl-2-(trimethylsilyl)-1H-pyrrole-1-carboxamide], under “0.1 ppm in minimal media agar”, the inhibition at 0.1 ppm is less than 0%. In addition, where the note is “1 ppm in minimal media agar”, the inhibition at 1 ppm was 15%. Where the note is “10 ppm in minimal media agar”, the inhibition at 10 ppm was 54%.

As for `CCNC(=O)c1c(Cl)cccc1[Si](C)(C)C1CCCCC1` [Example 181, 2-Chloro-6-(cyclohexyldimethylsilyl)-N-ethylbenzamide], for the setting “0.1 ppm in minimal media agar”, the inhibition at 0.1 ppm amounted to 12%. Besides, the inhibition at 1 ppm (1 ppm in minimal media agar) is 33%. Also, the inhibition at 10 ppm (10 ppm in minimal media agar) came out at 58%.

With `CCCCCCCC[Si](C)(C)c1cccc(Cl)c1C(=O)NCC` [Example 182, 2-Chloro-6-(dimethyloctylsilyl)-N-ethylbenzamide], the inhibition at 0.1 ppm (0.1 ppm in minimal media agar) turned out to be 30%. Moreover, for the setting “1 ppm in minimal media agar”, the inhibition at 1 ppm came out at 58%. Moreover, where the note is “10 ppm in minimal media agar”, the inhibition at 10 ppm turned out to be 73%.

Take `CCNC(=O)c1c(Cl)cccc1[Si](C)(C)C1CC2CCC1C2` (stereo not drawn) [Example 183, 2-(Bicyclo[2.2.1]Hept-2-yldimethylsilyl)-6-chloro-N-ethylbenzamide]: the inhibition at 0.1 ppm (0.1 ppm in minimal media agar) is 24%. Under “1 ppm in minimal media agar”, the inhibition at 1 ppm was 35%. For the same compound, the inhibition at 10 ppm (10 ppm in minimal media agar) amounted to 56%.

In the case of `CCNC(=O)c1c(Cl)cccc1[Si](C)(C)c1ccccc1` [Example 184, 2-Chloro-6-(dimethylphenylsilyl)-N-ethylbenzamide], the inhibition at 0.1 ppm (0.1 ppm in minimal media agar) is less than 0%. Further, the inhibition at 1 ppm (1 ppm in minimal media agar) was found to be 11%. Also, under “10 ppm in minimal media agar”, the inhibition at 10 ppm worked out at 83%.

In the case of `CCNC(=O)c1c(Cl)cccc1[Si](C)(C)C(C)(C)C` [Example 185, 2-Chloro-6-[(1,1-dimethylethyl)dimethylsilyl]-N-ethylbenzamide], where the note is “0.1 ppm in minimal media agar”, the inhibition at 0.1 ppm is 48%. The inhibition at 1 ppm (1 ppm in minimal media agar) is 56%. For the setting “10 ppm in minimal media agar”, the inhibition at 10 ppm came to 72%.

Take `CCN(C(=O)c1ccccc1C(C)(C)C)C(OC)C(C)(C)C` (stereo not drawn) [Example 186, 2-(1,1-Dimethylethyl)-N-ethyl-N-(1-methoxy-2,2-dimethylpropyl)benzamide]: the inhibition at 0.1 ppm (0.1 ppm in minimal media agar) is less than 0%. The inhibition at 1 ppm (1 ppm in minimal media agar) is less than 0%. The inhibition at 10 ppm (10 ppm in minimal media agar) is 67%.

With `CCN(C)C(=O)c1c(Cl)cccc1N(C)C(C)(C)C` [Example 189, 2-Chloro-6-[(1,1-dimethylethyl)methylamino]-N-ethyl-N-methylbenzamide], the inhibition at 0.1 ppm (0.1 ppm in minimal media agar) turned out to be 4%. Besides, the inhibition at 1 ppm (1 ppm in minimal media agar) came to 13%. Also, where the note is “10 ppm in minimal media agar”, the inhibition at 10 ppm is 65%.

As for `CCNC(=O)c1c(Cl)cccc1N(C)C(C)(C)C` [Example 190, 2-Chloro-6-[(1,1-dimethylethyl)methylamino]-N-ethylbenzamide], the inhibition at 0.1 ppm (0.1 ppm in minimal media agar) is 24%. Moreover, the inhibition at 1 ppm (1 ppm in minimal media agar) turned out to be 76%. Besides, the inhibition at 10 ppm (10 ppm in minimal media agar) stood at 80%.

Consider `CCNC(=O)c1c(Cl)cc(C=O)cc1[Si](C)(C)C` [Example 193, 2-Chloro-N-ethyl-4-formyl-6-(trimethylsilyl)benzamide], for which, for the setting “0.1 ppm in minimal media agar”, the inhibition at 0.1 ppm stood at 35%. For the same compound, the inhibition at 1 ppm (1 ppm in minimal media agar) was found to be 30%. Moreover, the inhibition at 10 ppm (10 ppm in minimal media agar) is 57%.

Consider `CCNC(=O)c1c(F)cccc1[S+]([O-])C(C)(C)C` (stereo not drawn) [Example 194, 2-[(1,1-Dimethylethyl)sulfinyl]-N-ethyl-6-fluorobenzamide], for which the inhibition at 0.1 ppm (0.1 ppm in minimal media agar) came to 82%. Moreover, the inhibition at 1 ppm (1 ppm in minimal media agar) stood at 100%. Moreover, the inhibition at 10 ppm (10 ppm in minimal media agar) was 100%.

For `CCN(CC)C(=O)c1c(F)cccc1[S+]([O-])C(C)(C)C` (stereo not drawn) [Example 195, N,N-Diethyl 2-[(1,1-dimethylethyl)sulfinyl]-6-fluorobenzamide], the inhibition at 0.1 ppm (0.1 ppm in minimal media agar) was 35%. Further, the inhibition at 1 ppm (1 ppm in minimal media agar) stood at 29%. The inhibition at 10 ppm (10 ppm in minimal media agar) is 56%.

For `CC(C)NC(=O)c1c(F)cccc1[S+]([O-])C(C)(C)C` (stereo not drawn) [Example 196, N-(1-Methylethyl)-2-[(1,1-dimethylethyl)sulfinyl]-6-fluorobenzamide], the inhibition at 0.1 ppm (0.1 ppm in minimal media agar) is 3%. In addition, the inhibition at 1 ppm (1 ppm in minimal media agar) worked out at 56%. The inhibition at 10 ppm (10 ppm in minimal media agar) is 100%.

Turning to `CCNC(=O)c1c([Si](C)(C)C)ccc(Cl)c1Cl` [Example 203, 2,3-Dichloro-N-ethyl-6-(trimethylsilyl)benzamide], the inhibition at 0.1 ppm (0.1 ppm in minimal media agar) came to 79%. The inhibition at 1 ppm (1 ppm in minimal media agar) was 84%. For the same compound, the inhibition at 10 ppm (10 ppm in minimal media agar) was found to be 91%.

For the compound `CN(C)NC(=O)c1c([Si](C)(C)C)ccc(Cl)c1Cl` [Example 205, 2,3-Dichloro-6-(trimethylsilyl)benzoic acid, 2,2-dimethylhydrazide], the inhibition at 0.1 ppm (0.1 ppm in minimal media agar) came to 5%. The inhibition at 1 ppm (1 ppm in minimal media agar) is 47%. Where the note is “10 ppm in minimal media agar”, the inhibition at 10 ppm is 81%.

For the compound `C#CCNC(=O)c1c(Br)cccc1[Si](C)(C)C` [Example 206, 2-Bromo-N-2-propynyl-6-(trimethylsilyl)benzamide], the inhibition at 0.1 ppm (0.1 ppm in minimal media agar) was 86%. In addition, the inhibition at 1 ppm (1 ppm in minimal media agar) came out at 97%. Besides, the inhibition at 10 ppm (10 ppm in minimal media agar) worked out at 100%.

Consider `CCNC(=O)c1c(I)cccc1[Si](C)(C)C` [Example 207, N-Ethyl-2-iodo-6-(trimethylsilyl)benzamide], for which the inhibition at 0.1 ppm (0.1 ppm in minimal media agar) was 31%. In addition, the inhibition at 1 ppm (1 ppm in minimal media agar) was determined as 90%. For the setting “10 ppm in minimal media agar”, the inhibition at 10 ppm worked out at 97%.

On to `C#CCNC(=O)c1c(I)cccc1[Si](C)(C)C` [Example 208, 2-Iodo-N-2-propynyl-6-(trimethylsilyl)benzamide], for which the inhibition at 0.1 ppm (0.1 ppm in minimal media agar) is less than 0%. The inhibition at 1 ppm (1 ppm in minimal media agar) was 83%. Besides, the inhibition at 10 ppm (10 ppm in minimal media agar) came out at 97%.

In the case of `C[Si](C)(C)c1cccc(I)c1C(=O)NC1CC1` [Example 209, N-Cyclopropyl-2-iodo-6-(trimethylsilyl)benzamide], the inhibition at 0.1 ppm (0.1 ppm in minimal media agar) turned out to be 28%. Under “1 ppm in minimal media agar”, the inhibition at 1 ppm was found to be 90%. Further, the inhibition at 10 ppm (10 ppm in minimal media agar) was 100%.
